“And” between values parts separate entries of the source, which are not always exact repeats. Equal entries are not always repeated. Where two headings read alike, the source gives them in different places.
How the values were obtained:
NSCLC [1] = conditions: patients previously screened for EGFR expression; cited from earlier work
NSCLC patients [2] = assay: Objective response (RECIST) of NSCLC patients in the gefitinib expanded access trial, by demographic and molecular subgroup; assay type: in vivo, human
Description: (§1) Specimens. […] Chart review and study analyses were approved by the RUMC Institutional Review Board. The diagnosis of NSCLC in the archival material was obtained from pathology reports and confirmed by histologic evaluation before further analysis. Age, gender, smoking status and disease grade were established from chart review and patient report at registration. Smoking status was defined by lifetime consumption of <100 cigarettes. Response was assessed according to RECIST criteria of measurable and non-measurable lesions. […] Progressive disease was defined by relapse within 70 days of treatment.
(§2) In Situ Hybridization. For copy number analyses by FISH, EGFR and centromere 7 (CEN7) probes were utilized to examine EGFR/cell, CEN7/cell and EGFR/CEN 7. A probe targeting α satellite repeat sequences near the centromere of chromosome 7 was used to indicate CEN 7 copy number (SpectrumGreen™ CEP® 7, Abbott Molecular Inc.). Specimen slides were prepared using either the Vysis Paraffin Pretreatment II or III kits (Abbott Molecular Inc.). The prepared specimen slides were hybridized with two-color FISH probe solutions (SpectrumOrange™ LSI® EGFR, Spectrum-Green CEP 7; Abbott Molecular Inc.) in a HYBrite™ automated co-denaturation oven (Abbott Molecular Inc.). The slides were placed on the oven surface and 10 μL probe solution was layered over the tissue section. A cover slip was applied over the probe solution and sealed to the slide with rubber cement. After denaturation at 73° C. for 5 minutes, the probe was hybridized at 37° C. for 16-18 hr. Following hybridization and removal of the rubber cement seal, the slides were placed in room-temperature 2×SSC (SSC=0.3 M NaCl, 15 mM sodium citrate), 0.3% Nonidet P40 (NP40) for 2-5 min to detach the cover slips. The slides were then immersed in 73° C. 2×SSC, 0.3% NP40 for 2 min to remove nonspecifically bound probe and then were allowed to dry in the dark. DAPI I antifade solution (Abbott Molecular Inc.) was applied to the specimen for visualization of the nuclei. […] Over-digested or under-digested specimens were reprocessed as described previously.
(§3) Typically, 30-90 (median 80) cells were enumerated in each specimen. The mean number of signals per cell was calculated by totaling the number of signals from each cell for EGFR and CEN 7, and dividing by the number of cells counted to provide EGFR/cell and CEN 7/cell, respectively. EGFR/cell was divided by CEN 7/cell signals per cell to yield EGFR/CEN7. Other FISH parameters used in developing selection criteria are defined as follows. The EGFR % gain or CEN 7% gain was calculated as the percentage of cells with more than two EGFR or CEN 7 signals, respectively. […] When a slide was counted multiple times, counts were combined and used for recalculating the ratios and % gain.
(§4) Optimal cutoff points for defining high ratios or high % gains were selected by first generating cutoffs from the mean minus 1.5 standard deviations to the mean plus 3.5 standard deviations, in 0.1 standard deviation increments, for each parameter (ratios and % gains), using the mean and standard deviations of the non responding patients. Each high and low ratios and % gains at each cutoff were compared with objective response and survival (greater than or less than 1 year survival) in contingency tables. Cutoffs with the lowest chi-square probabilities were selected for further analysis.
(§5) Immunohistochemistry. Paraffin sections (5 μm, freshly cut) were deparaffinized and rehydrated by standard technique. A microwave antigen retrieval method was then carried out in citrate buffer. The tissue was stained using a Ventana ES Histo-stainer (Ventana Medical Systems, Tucson, Ariz.) using supplied diaminobenzidine and avidin-biotin conjugate immunoperoxidase chemistry.
Immunostaining frequency of all tumor cells on each slide was estimated on a scale of 0 to 4 without knowledge of clinical patient data.

NSCLC patients [3] = assay: Overall survival (Kaplan-Meier) of NSCLC patients in the gefitinib expanded access trial, by molecular subgroup; assay type: in vivo, human
Description: as §1, §2, §3, §4
Cutpoints were also assigned to indicate loss of chromosome 7, either monosomy or nullisomy.
as §5

NSCLC [4] = conditions: phase II trials; cited from earlier work
NSCLC [5] = conditions: phase III trial; cited from earlier work

## C#Cc1cccc(Nc2ncnc3cc(OCCOC)c(OCCOC)cc23)c1 [Erlotinib, erlotinib]
NSCLC [1]
  response rate: 12.3%

## COc1cc2ncnc(Nc3ccc(F)c(Cl)c3)c2cc1OCCCN1CCOCC1 [gefitinib]
NSCLC patients [2]; 250 mg daily gefitinib, Total, 81 patients
  Objective Response (partial and complete, RECIST), number of patients (%): 12 (15) %
NSCLC patients [2]; 250 mg daily, Age <60 years
  Objective Response, number of patients (%): 8 (13) %
NSCLC patients [2]; 250 mg daily, Age ≧60 years
  Objective Response, number of patients (%): 4 (21) %
NSCLC patients [2]; 250 mg daily, Gender Female
  Objective Response, number of patients (%): 7 (16) %
NSCLC patients [2]; 250 mg daily, Gender Male
  Objective Response, number of patients (%): 5 (14) %
NSCLC patients [2]; 250 mg daily, Histopathological subtype Bronchoalveolar, adenocarcinoma
  Objective Response, number of patients (%): 10 (18) %
NSCLC patients [2]; 250 mg daily, Histopathological subtype Other
  Objective Response, number of patients (%): 2 (8) %
NSCLC patients [2]; 250 mg daily, Never smoked
  Objective Response, number of patients (%): 7 (58) %
NSCLC patients [2]; 250 mg daily, Performance status 0 to 1
  Objective Response, number of patients (%): 6 (13) %
NSCLC patients [2]; 250 mg daily, Performance status 2 to 4
  Objective Response, number of patients (%): 6 (18) %
NSCLC patients [2]; 250 mg daily, Prior chemotherapy None
  Objective Response, number of patients (%): 2 (14) %
NSCLC patients [2]; 250 mg daily, Prior chemotherapy One
  Objective Response, number of patients (%): 7 (18) %
NSCLC patients [2]; 250 mg daily, Prior chemotherapy Two or more
  Objective Response, number of patients (%): 3 (5) %
NSCLC patients [2]; 250 mg daily, Smoking status Yes
  Objective Response, number of patients (%): 5 (7) %
NSCLC patients [2]; 81 patients, 250 mg daily gefitinib
  Overall response: 15%
NSCLC patients [2]; CEN 7/cell <3.6
  Objective Response, number of patients (%): 7 (11) %
NSCLC patients [2]; CEN 7/cell <3.8
  Objective Response, number of patients (%): 7 (11) %
NSCLC patients [2]; CEN 7/cell <3.8 and >2.0 (“normal”)
  Objective Response, number of patients (%): 7 (13) %
NSCLC patients [2]; CEN 7/cell <4
  Objective Response, number of patients (%): 7 (11) %
NSCLC patients [2]; CEN 7/cell >3.8 or <2.0 (aneusomy)
  Objective Response, number of patients (%): 5 (19) %
NSCLC patients [2]; CEN 7/cell ≧3.6
  Objective Response, number of patients (%): 5 (28) %
NSCLC patients [2]; CEN 7/cell ≧3.8
  Objective Response, number of patients (%): 5 (31) %
NSCLC patients [2]; CEN 7/cell ≧4
  Objective Response, number of patients (%): 5 (36) %
NSCLC patients [2]; EGFR % gain <75%
  Objective Response, number of patients (%): 5 (9) %
NSCLC patients [2]; EGFR % gain ≧75%
  Objective Response, number of patients (%): 7 (29) %
NSCLC patients [2]; EGFR IHC 0
  Objective Response, number of patients (%): 3 (9) %
NSCLC patients [2]; EGFR IHC 1+ to 4+
  Objective Response, number of patients (%): 9 (20) %
NSCLC patients [2]; EGFR/CEN 7 % gain <34%
  Objective Response, number of patients (%): 3 (7) %
NSCLC patients [2]; EGFR/CEN 7 % gain ≧34%
  Objective Response, number of patients (%): 9 (23) %
NSCLC patients [2]; EGFR/CEN 7 <1
  Objective Response, number of patients (%): 1 (5) %
NSCLC patients [2]; EGFR/CEN 7 ≧1
  Objective Response, number of patients (%): 11 (19) %
NSCLC patients [2]; EGFR/cell ≦6 (FISH)
  Objective Response, number of patients (%): 7 (10) %
NSCLC patients [2]; EGFR/cell ≧6 (FISH)
  Objective Response, number of patients (%): 5 (46) %
NSCLC patients [2]; PTEN IHC Absent, 73 patients analyzed
  Objective Response, number of patients (%): 3 (7) %
NSCLC patients [2]; PTEN IHC Present (1+ to 4+), 73 patients analyzed
  Objective Response, number of patients (%): 8 (30) %
NSCLC patients [2]; of 81 patients
  patients with complete response: 2 patients
  patients with partial response: 10 patients
  patients with stable disease: Thirty-six
NSCLC patients [2]; pAKT IHC Absent, 73 patients analyzed
  Objective Response, number of patients (%): 4 (10) %
NSCLC patients [2]; pAKT IHC Present (1+ to 4+), 73 patients analyzed
  Objective Response, number of patients (%): 7 (21) %
NSCLC patients [3]; CEN 7 % ≧4 copies <52%
  Median Survival: 6.9 Months
NSCLC patients [3]; CEN7 % ≧4 copies ≧52%, pAKT+
  Median Survival: 39.4 months
NSCLC patients [3]; CEN7 % ≧4 copies, pAKT: Any negative
  Median Survival: 5.9 months
NSCLC patients [3]; CEN 7/cell <3.6 (non-polysomy)
  Median Survival: 6.0 Months
NSCLC patients [3]; CEN 7/cell <3.6 and >2.0 (“normal”)
  Median Survival: 5.8 Months
NSCLC patients [3]; CEN 7/cell >3.6 or <2.0 (aneusomy)
  Median Survival: 15.3 Months
NSCLC patients [3]; CEN 7/cell ≧3.6 (polysomy)
  Median Survival: 16.2 Months
NSCLC patients [3]; CEN 7/cell, pAKT: Any negative
  Median Survival: 5.9 months
NSCLC patients [3]; CEN 7 ≧3.6 (polysomy), pAKT+
  Median Survival: 24.5 months
NSCLC patients [3]; EGFR % gain <75%
  Median Survival: 7.9 Months
NSCLC patients [3]; EGFR % gain ≧75%
  Median Survival: 9.4 Months
NSCLC patients [3]; EGFR % gain ≧75% cells and pAKT+
  Median Survival: 24.5 months
NSCLC patients [3]; EGFR % gain, pAKT: Any negative
  Median Survival: 6.6 months
NSCLC patients [3]; EGFR Expression, IHC Not detected
  Median Survival: 8.5 Months
NSCLC patients [3]; EGFR Expression, IHC Present
  Median Survival: 7.1 Months
NSCLC patients [3]; EGFR/CEN 7 % gain <34%
  Median Survival: 6.0 Months
NSCLC patients [3]; EGFR/CEN 7 % gain ≧3.4%
  Median Survival: 10.3 Months
NSCLC patients [3]; EGFR/CEN7 % gain, PTEN: Any negative
  Median Survival: 6.6 months
NSCLC patients [3]; PTEN Expression, IHC Not detected
  Median Survival: 5.9 Months
NSCLC patients [3]; PTEN Expression, IHC Present
  Median Survival: 9.3 Months
NSCLC patients [3]; pAKT Expression, IHC Not detected
  Median Survival: 5.8 Months
NSCLC patients [3]; pAKT Expression, IHC Present
  Median Survival: 10.5 Months
NSCLC [4]
  response rate: 18.4% and 11.8%
NSCLC [5]
  response rate: 8-13%
  survival benefit: no significant survival benefit

Source: US20070275403A1, “Diagnostic methods for determining treatment” (priority 2006, published 2007)
